For orientation: IC50 means the concentration that inhibits the measured activity by half.

The values below come from ChEMBL document CHEMBL5046289, “Targeting the S2 Subsite Enables the Structure-Based Discovery of Novel Highly Selective Factor XIa Inhibitors” (J Med Chem, 2022).

SMILES strings stand for the structures. Activity calls are given as the source filed them. No cut-off for these calls is given here.

The target in one data set is Plasma kallikrein (Homo sapiens, UniProt P03952). In words: Inhibition of plasma kallikrein (unknown origin) assessed as chromogenic substrate hydrolysis using CS-31(02) as substrate incubated for 1 hr by spectrophotometer based microplate reader method.
The target of another data set is Coagulation factor X (Homo sapiens, UniProt P00742). In words: Inhibition of coagulation factor Xa (unknown origin) assessed as chromogenic substrate using CS-11(22) as substrate incubated for 1 hr by spectrophotometer based microplate reader method.
For data set [1], the target named is Coagulation factor IX (Homo sapiens) (UniProt P00740). Kind of data set: Inhibition of coagulation factor IXa (unknown origin) assessed as chromogenic substrate using ADG299 as substrate at 1 mM incubated for 1 hr by spectrophotometer based microplate reader method.
The target of data set [2] is T1, Coagulation factor VII (Homo sapiens) (UniProt P08709).
T1 sequence (whole entry): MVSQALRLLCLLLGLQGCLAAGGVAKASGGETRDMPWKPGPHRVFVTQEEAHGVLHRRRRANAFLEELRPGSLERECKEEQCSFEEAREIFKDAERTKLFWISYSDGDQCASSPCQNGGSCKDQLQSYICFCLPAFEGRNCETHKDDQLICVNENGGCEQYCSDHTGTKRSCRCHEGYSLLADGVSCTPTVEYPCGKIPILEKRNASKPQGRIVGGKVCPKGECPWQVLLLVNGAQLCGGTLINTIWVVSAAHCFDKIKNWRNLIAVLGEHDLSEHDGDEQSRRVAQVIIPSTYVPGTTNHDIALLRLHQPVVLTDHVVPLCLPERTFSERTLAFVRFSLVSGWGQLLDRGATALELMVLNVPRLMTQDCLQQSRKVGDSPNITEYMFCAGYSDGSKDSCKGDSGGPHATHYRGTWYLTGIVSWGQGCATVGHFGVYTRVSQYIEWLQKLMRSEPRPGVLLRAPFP
In words: Inhibition of coagulation factor VIIa (unknown origin) assessed as chromogenic substrate using chromozyme t-PA as substrate at 1 mM incubated for 1 hr by spectrophotometer based microplate reader method.

For the next data set, the species on record is Homo sapiens. Kind of data set: Selectivity index, ratio of IC50 for coagulation factor VIIa (unknown origin) to IC50 for coagulation factor XIa (unknown origin).
A short description of data set [3]: Apparent volume of distribution in Sprague-Dawley rat at 10 mg/kg, iv after 0.083 to 24 hrs by LC-MS/MS analysis. In kind it is ADME, organism-based. The note with it: in vivo, time 0.083-24 hrs, read-out: Vz.
The subject of a further data set is Mus musculus. In words: Antithrombotic activity in C57BL/6J mouse model of FeCl3-induced carotid artery thrombosis assessed as time of occlusion pretreated at 6.5 mg/kg for 10 mins followed by FeCl3 addition for 3 mins and measured after 30 mins. In kind it is functional, organism-based.
Data set [4] can be described thus: Toxicity in C57BL/6J mouse assessed as bleeding risk at 20 mg/kg, iv measured after 15 mins by tail transection assay. The data set is classed as organism-based. As to conditions: in vivo, 0.25 h.

Coagulation factor X, sequence (P00742 41-179 limits assumed): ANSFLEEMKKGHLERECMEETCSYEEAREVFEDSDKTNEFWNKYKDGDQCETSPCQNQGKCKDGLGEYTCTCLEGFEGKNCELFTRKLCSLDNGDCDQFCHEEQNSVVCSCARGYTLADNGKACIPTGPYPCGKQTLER
Coagulation factor X, sequence (P00742 235-488 limits assumed): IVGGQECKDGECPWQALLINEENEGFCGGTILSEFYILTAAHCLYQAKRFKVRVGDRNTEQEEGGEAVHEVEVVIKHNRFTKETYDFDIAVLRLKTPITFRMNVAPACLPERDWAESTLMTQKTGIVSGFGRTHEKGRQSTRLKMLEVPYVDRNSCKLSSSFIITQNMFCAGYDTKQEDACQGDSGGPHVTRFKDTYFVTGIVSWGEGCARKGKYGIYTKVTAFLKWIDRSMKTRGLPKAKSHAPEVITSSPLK
Coagulation factor IX (Homo sapiens), sequence (P00740 47-191 limits assumed): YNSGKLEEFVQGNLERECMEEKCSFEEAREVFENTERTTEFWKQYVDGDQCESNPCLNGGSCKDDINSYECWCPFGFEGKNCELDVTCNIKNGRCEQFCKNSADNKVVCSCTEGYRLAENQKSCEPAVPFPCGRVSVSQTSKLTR
Coagulation factor IX (Homo sapiens), sequence (P00740 227-461 limits assumed): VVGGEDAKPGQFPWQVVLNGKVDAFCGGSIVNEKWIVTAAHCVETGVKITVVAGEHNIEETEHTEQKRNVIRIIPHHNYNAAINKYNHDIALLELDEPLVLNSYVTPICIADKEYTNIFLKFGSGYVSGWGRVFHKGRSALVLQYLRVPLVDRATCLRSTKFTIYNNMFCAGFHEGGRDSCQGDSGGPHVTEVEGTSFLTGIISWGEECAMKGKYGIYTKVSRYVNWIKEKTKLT
Plasma kallikrein, sequence (P03952 20-390 limits assumed): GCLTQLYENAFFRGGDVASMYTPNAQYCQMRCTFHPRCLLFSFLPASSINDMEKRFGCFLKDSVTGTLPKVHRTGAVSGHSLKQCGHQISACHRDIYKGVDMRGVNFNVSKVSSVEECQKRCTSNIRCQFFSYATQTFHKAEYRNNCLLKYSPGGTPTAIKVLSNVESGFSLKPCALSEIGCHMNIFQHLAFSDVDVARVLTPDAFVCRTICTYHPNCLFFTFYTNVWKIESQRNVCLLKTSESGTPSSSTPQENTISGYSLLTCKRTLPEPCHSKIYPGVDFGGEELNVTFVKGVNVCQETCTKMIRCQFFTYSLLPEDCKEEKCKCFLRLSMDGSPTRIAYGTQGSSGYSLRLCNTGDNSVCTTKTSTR
Plasma kallikrein, sequence (P03952 391-638 limits assumed): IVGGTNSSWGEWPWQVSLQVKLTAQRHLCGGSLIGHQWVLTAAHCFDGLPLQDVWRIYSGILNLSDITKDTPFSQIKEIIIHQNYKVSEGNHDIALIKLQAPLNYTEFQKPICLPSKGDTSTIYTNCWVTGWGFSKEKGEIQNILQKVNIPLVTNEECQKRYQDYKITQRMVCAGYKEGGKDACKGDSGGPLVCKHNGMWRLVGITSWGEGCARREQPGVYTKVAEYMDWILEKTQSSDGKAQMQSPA

With `O=C(/C=C/c1cc(Cl)ccc1-n1cnnn1)N[C@@H](CC(=O)N1CCN(c2ccccc2)CC1)C(=O)Nc1ccc(C(=O)O)cc1`, the IC50 turned out to be 27.9 µM at Plasma kallikrein and 340 µM at Coagulation factor X. Moreover, the inhibition entry in data set [1] and in data set [2] was “inactive” in each case. For the same compound, in the data set filed under Homo sapiens, the Ratio IC50 is over 5000. For the same compound, in data set [3], the Vd is 0.969 L/kg. In addition, the result in the data set with Mus musculus was inactive. Besides, the Activity result in data set [4] is given as “Non-Toxic”.
